The text below walks through data of publication PMC5359181 (Protein & Cell, 2016).

Read-outs that look alike come from different tables or passages of the source. A value given as a limit tells only on which side of the number the result lay.

Assay [1] addresses T1, human equilibrative nucleoside transporter 1 (hENT1) (Homo sapiens, UniProt Q99808, N48Q).
T1 construct: gene SLC29A1; full-length, residues 1-456
T1 sequence (Q99808 1-456 N48Q): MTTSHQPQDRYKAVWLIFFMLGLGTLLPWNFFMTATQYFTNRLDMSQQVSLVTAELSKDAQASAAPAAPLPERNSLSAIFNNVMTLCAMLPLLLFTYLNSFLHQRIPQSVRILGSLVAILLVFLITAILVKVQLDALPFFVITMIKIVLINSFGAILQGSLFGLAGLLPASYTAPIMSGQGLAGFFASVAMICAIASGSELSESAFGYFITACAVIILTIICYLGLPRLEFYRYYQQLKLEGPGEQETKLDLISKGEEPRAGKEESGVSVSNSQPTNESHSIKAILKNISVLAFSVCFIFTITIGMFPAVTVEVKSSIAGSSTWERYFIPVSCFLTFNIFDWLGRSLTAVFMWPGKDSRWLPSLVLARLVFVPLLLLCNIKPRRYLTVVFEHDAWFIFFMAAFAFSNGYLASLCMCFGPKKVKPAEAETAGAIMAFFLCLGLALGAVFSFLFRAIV
The experiment in a line: proteoliposome competition assay with 3H-adenosine, […] reduction at […]. Format: biochemical. The note with it: read-out: % reduction at 500 μmol/L.

Assay [2] concerns the target T1, human equilibrative nucleoside transporter 1 (hENT1). Briefly: ITC. Format: binding.

For `Cc1cn([C@@H]2O[C@H](CO)[C@@H](O)[C@H]2O)c(=O)[nH]c1=O` [5-methyluridine], in assay [1], the inhibition at 500 µM was more than 90%.

`Nc1ncnc2nc[nH]c12` [adenine] gave a Kd in assay [2] of 5000 ± 500 µM.

With `Nc1ncnc2c1ncn2[C@H]1C[C@H](O)[C@@H](CO)O1` [deoxyadenosine], in assay [2] (read-out: Kd), the Kd worked out at 190 ± 40 µM.

For `Nc1nc2c(ncn2[C@H]2C[C@H](O)[C@@H](CO)O2)c(=O)[nH]1` [deoxyguanosine], the inhibition at 500 µM in assay [1] is more than 90%.

Consider `O=c1ccn([C@H]2C[C@H](O)[C@@H](CO)O2)c(=O)[nH]1` [deoxyuridine], for which, in assay [1], the inhibition at 500 µM is more than 90%.

For the molecule `Cc1cn([C@H]2C[C@H](O)[C@@H](CO)O2)c(=O)[nH]c1=O` [thymidine], the inhibition at 500 µM in assay [1] is more than 90%.

On to `O=c1ccn([C@@H]2O[C@H](CO)[C@@H](O)[C@H]2O)c(=O)[nH]1` [uridine], for which the inhibition at 500 µM in assay [1] was more than 90%.

By Kd is commonly meant a measure of binding affinity in units of concentration.
